The numbers were not newly measured in patent publication US20260001962A1, “COMBINATION THERAPY METHODS WITH T-CELL ENGAGING MOLECULES FOR TREATMENT OF PROSTATE CANCER” (AMGEN INC., priority 2022, published 2026), which cites them from elsewhere.

The structures appear in SMILES notation. Entries after “also recorded” stand apart in the source; their conditions may differ.

In data set [1] the test system is prostate cancer cells. Particulars: reported in literature.
Data set [2] concerns prostate cancer cells. Particulars: in vitro; Deegen et al. 2021.

Take `CO[C@H]1C(=O)[C@]2(C)[C@@H](OC)C[C@H]3OC[C@@]3(OC(C)=O)[C@H]2[C@H](OC(=O)c2ccccc2)[C@]2(O)C[C@H](OC(=O)[C@H](O)[C@@H](NC(=O)OC(C)(C)C)c3ccccc3)C(C)=C1C2(C)C` [Cabazitaxel]: the “increase in median survival compared with mitoxantrone” value with mCRPC patients (mCRPC) was 2.4 months. As for `[223Ra]` [Radium-223], the survival in the data set on mCRPC patients (patients with bone metastases, combined with best standard care, vs 11.3) is listed as 14.9 months. Regarding `CNC(=O)c1ccc(N2C(=S)N(c3ccc(C#N)c(C(F)(F)F)c3)C(=O)C2(C)C)cc1F` [enzalutamide], the OS in the data set on mCRPC patients (first line mCRPC setting, vs 31.3) is 35.3 months. In addition, the “expression of PSMA on prostate cancer cells” value with prostate cancer cells [1] is reported as “rapidly upregulate expression of PSMA”. Besides, in the data set with prostate cancer cells [2], the “cytotoxicity of prostate cancer cells induced by PSMA-targeted T-cell engager (AMG 160)” value is recorded as “enhances cytotoxicity of prostate cancer cells; also recorded: enhance AMG 160-mediated cytotoxicity of prostate cancer cells”.
